From article PMC9743092, “Membrane-Active Cyclic Amphiphilic Peptides: Broad-Spectrum Antibacterial Activity Alone and in Combination with Antibiotics” (Journal of Medicinal Chemistry, 2022)
Values after ≈ are worked out from the molar mass of the structure shown. Like-named read-outs stand apart in the source and are kept apart here. Peptide text beside a SMILES is read from it.

Key:
[1] = test system: P. aeruginosa (ATCC 27883); test: Synergistic checkerboard assay; assay type: cell-based; conditions: Pseudomonas aeruginosa
[2] = test system: E. coli (ATCC 25922); test: Synergistic checkerboard assay; assay type: cell-based; conditions: Escherichia coli
[3] = test system: K. pneumoniae (ATCC BAA-1705); test: Synergistic checkerboard assay; conditions: Klebsiella pneumoniae, ATCCBAA1705, read-out: MIC antibiotic alone
[4] = test system: P. aeruginosa (ATCC 27883); test: microbe, parasite or virus in culture; conditions: Pseudomonas aeruginosa, ATCC27883, read-out: MIC P. aeruginosa (ATCC 27883)
[5] = test system: E. coli (ATCC 25922); test: microbe, parasite or virus in culture; conditions: Escherichia coli
[6] = test system: K. pneumoniae (ATCC BAA-1705); test: microbe, parasite or virus in culture; conditions: Klebsiella pneumoniae
[7] = test system: S. aureus (ATCC BAA-1556); test: Synergistic checkerboard assay; assay type: cell-based; conditions: Staphylococcus aureus
[8] = test system: MRSA (ATCC BAA-1556); test: microbe, parasite or virus in culture; conditions: Staphylococcus aureus
[9] = test system: E. coli (ATCC 25922); test: microbe, parasite or virus in culture; conditions: Escherichia coli, ATCC25922, 24 h, read-out: MBC E. coli (ATCC 25922)
[10] = test system: MRSA (ATCC BAA-1556); test: microbe, parasite or virus in culture; conditions: Staphylococcus aureus, ATCCBAA1556|MRSA, 24 h, read-out: MBC MRSA (ATCC BAA-1556)
[11] = test system: P. aeruginosa (ATCC 27883); test: microbe, parasite or virus in culture; conditions: Pseudomonas aeruginosa, ATCC27883, 24 h, read-out: MBC P. aeruginosa (ATCC 27883)
[12] = test system: K. pneumoniae (ATCC BAA-1705); test: microbe, parasite or virus in culture; conditions: Klebsiella pneumoniae, ATCCBAA1705, 24 h, read-out: MBC K. pneumoniae (ATCC BAA-1705)
[13] = test system: P. aeruginosa (ATCC 27883); conditions: 24 h, ≥99.9% kill
[14] = test system: E. coli (ATCC 25922); conditions: 24 h, ≥99.9% kill
[15] = test system: K. pneumoniae (ATCC BAA-1705); conditions: for MIC K. pneumoniae: supplementary csv, unit not given
[16] = test system: human red blood cells (hRBCs); conditions: red cells of human, 2 h
[17] = test system: MRSA (ATCC BAA-1556); parameters: MIC MRSA: unit not given beside the values; conditions: for MIC MRSA: supplementary csv, unit not given
[18] = test system: P. aeruginosa (ATCC 27883); parameters: MIC P. aeruginosa: unit not given beside the values; conditions: supplementary csv, unit not given
[19] = test system: K. pneumoniae (ATCC BAA-1705); conditions: 24 h, ≥99.9% kill
[20] = test system: E. coli (ATCC 25922); parameters: MIC E. coli: unit not given beside the values; conditions: for MIC E. coli: supplementary csv, unit not given
[21] = ATCC27883, read-out: MIC antibiotic alone
[22] = ATCC25922, read-out: MIC antibiotic alone
[23] = ATCC27883, checkerboard, read-out: MIC antibiotic alone
[24] = ATCC25922, read-out: MIC E. coli (ATCC 25922)
[25] = ATCCBAA1705, read-out: MIC K. pneumoniae (ATCC BAA-1705)
[26] = ATCC25922, checkerboard, read-out: MIC antibiotic alone
[27] = ATCCBAA1556, checkerboard, read-out: MIC antibiotic alone
[28] = read-out: MIC S. aureus (ATCC BAA-1556)
[29] = read-out: MIC MRSA (ATCC BAA-1556)
[30] = antibiotic alone or physical mixture with peptide (1:1 w/w)

C[C@H]1COc2c(N3CCN(C)CC3)c(F)cc3c(=O)c(C(=O)O)cn1c23.C[C@H]1COc2c(N3CCN(C)CC3)c(F)cc3c(=O)c(C(=O)O)cn1c23.O [levofloxacin]
MIC [1, 21]: 1 µg/mL | MIC [2, 22]: 64 µg/mL | MIC [3]: 64 µg/mL

CN(C)[C@@H]1C(O)=C(C(N)=O)C(=O)[C@@]2(O)C(O)=C3C(=O)c4c(O)cccc4[C@@](C)(O)[C@H]3C[C@@H]12 [tetracycline]
MIC [1, 23]: 32 µg/mL | MIC [4]: 32 µg/mL (≈ 72 µM) | MIC [5, 24]: 8 µg/mL (≈ 18 µM) | MIC [6, 25]: […] | MIC [2, 26]: 8 µg/mL | MIC [7, 27]: 0.25 µg/mL | MIC [8, 28]: 0.25 µg/mL (≈ 0.563 µM) | MIC [3]: […]

CN[C@H](CC(C)C)C(=O)N[C@H]1C(=O)N[C@@H](CC(N)=O)C(=O)N[C@H]2C(=O)N[C@H]3C(=O)N[C@H](C(=O)N[C@H](C(=O)O)c4cc(O)cc(O)c4-c4cc3ccc4O)[C@H](O)c3ccc(c(Cl)c3)Oc3cc2cc(c3O[C@@H]2O[C@H](CO)[C@@H](O)[C@H](O)[C@H]2O[C@H]2C[C@](C)(N)[C@H](O)[C@H](C)O2)Oc2ccc(cc2Cl)[C@H]1O [vancomycin]
MIC [1, 21]: 256 µg/mL | MIC [4]: 256 µg/mL (≈ 177 µM) | MIC ([5]; ATCC25922, 24 h, read-out: MIC E. coli (ATCC 25922)): 256 µg/mL (≈ 177 µM) | MIC [5, 24]: 256 µg/mL (≈ 177 µM) | MIC ([6]; ATCCBAA1705, 24 h, read-out: MIC K. pneumoniae (ATCC BAA-1705)): 512 µg/mL (≈ 353 µM) | MIC [6, 25]: 512 µg/mL (≈ 353 µM) | MIC [2, 22]: 256 µg/mL | MIC ([7]; ATCCBAA1556, read-out: MIC antibiotic alone): 1 µg/mL | MIC [8, 29]: 1 µg/mL (≈ 0.69 µM) | MIC [8, 28]: 1 µg/mL (≈ 0.69 µM) | MIC [3]: 512 µg/mL

C[C@@H](O)[C@H]1C(=O)N2C(C(=O)O)=C(S[C@@H]3CN[C@H](C(=O)N(C)C)C3)[C@H](C)[C@H]12 [meropenem]
MIC [1, 23]: 1 µg/mL | MIC [4]: 1 µg/mL (≈ 2.61 µM) | MBC [9]: 2 µg/mL (≈ 5.22 µM) | MIC [5, 24]: 1 µg/mL (≈ 2.61 µM) | MBC [10]: 8 µg/mL (≈ 20.9 µM) | MIC [2, 26]: 1 µg/mL | MIC [7, 27]: 2 µg/mL | MBC [11]: 4 µg/mL (≈ 10.4 µM) | MIC [8, 29]: 2 µg/mL (≈ 5.22 µM) | MIC [8, 28]: 2 µg/mL (≈ 5.22 µM) | MBC [12]: 64 µg/mL (≈ 167 µM)

NC[C@H]1O[C@H](O[C@H]2[C@H](O)[C@@H](O[C@H]3O[C@H](CO)[C@@H](O)[C@H](N)[C@H]3O)[C@H](N)C[C@@H]2N)[C@H](N)C[C@@H]1O [tobramycin]
MIC [1, 23]: 0.5 µg/mL | MIC [4]: 0.5 µg/mL (≈ 1.07 µM) | MIC [5, 24]: 8 µg/mL (≈ 17.1 µM) | MIC [6, 25]: 16 µg/mL (≈ 34.2 µM) | MIC [2, 26]: 8 µg/mL | MIC [7, 27]: 0.5 µg/mL | MIC [8, 28]: 0.5 µg/mL (≈ 1.07 µM) | MIC [3]: 16 µg/mL

N=C(N)NCCC[C@@H]1NC(=O)[C@H](CCCNC(=N)N)NC(=O)[C@H](CCCNC(=N)N)NC(=O)[C@H](CCCNC(=N)N)NC(=O)[C@H](Cc2c[nH]c3ccccc23)NC(=O)[C@H](Cc2c[nH]c3ccccc23)NC(=O)[C@H](Cc2c[nH]c3ccccc23)NC(=O)[C@H](Cc2c[nH]c3ccccc23)NC(=O)[C@H](CCCNC(=N)N)NC(=O)[C@H](CCCNC(=N)N)NC1=O [6a, [R6W4]] (cyclo(RRRRRRWWWW))
MBC P. aeruginosa (ATCC 27883) [13]: 16 µg/mL (≈ 9.51 µM) | MBC E. coli (ATCC 25922) [14]: 32 µg/mL (≈ 19 µM) | MIC K. pneumoniae (ATCC BAA-1705) ([15]; MgCl2 (1 mM)): 32 µg/mL (≈ 19 µM) | MIC K. pneumoniae (ATCC BAA-1705) ([15]; NH4Cl (6 mM)): 32 µg/mL (≈ 19 µM) | MIC K. pneumoniae [15]: 64 | HC50 [16]: 265 µg/mL | MIC MRSA (ATCC BAA-1556) ([17]; CaCl2 (2 mM)): 8 µg/mL (≈ 4.76 µM) | MIC MRSA (ATCC BAA-1556) ([17]; FBS (25%)): 8 µg/mL (≈ 4.76 µM) | MIC MRSA (ATCC BAA-1556) ([17]; FeCl3 (8 µM)): 8 µg/mL (≈ 4.76 µM) | MIC MRSA (ATCC BAA-1556) ([17]; KCl ([…])): 8 µg/mL (≈ 4.76 µM) | MIC MRSA (ATCC BAA-1556) ([17]; MH broth media, absence of salts and serum): 8 µg/mL | MIC MRSA (ATCC BAA-1556) ([17]; MgCl2 (1 mM)): 4 µg/mL (≈ 2.38 µM) | MIC MRSA (ATCC BAA-1556) ([17]; NH4Cl (6 mM)): 4 µg/mL (≈ 2.38 µM) | MIC MRSA (ATCC BAA-1556) ([17]; NaCl (150 mM)): 8 µg/mL (≈ 4.76 µM) | MIC MRSA [17]: 8 | MIC P. aeruginosa [18]: 16 | MBC K. pneumoniae (ATCC BAA-1705) [19]: 128 µg/mL (≈ 76.1 µM) | MIC E. coli [20]: 32

Cc1ncc([N+](=O)[O-])n1CCO [metronidazole]
MIC [1, 23]: 32 µg/mL | MIC [4]: 32 µg/mL (≈ 187 µM) | MIC K. pneumoniae (ATCC BAA-1705) [15, 30]: 256 µg/mL (≈ 1500 µM) | MIC [7, 27]: 32 µg/mL | MIC [8, 28]: 32 µg/mL (≈ 187 µM) | MIC [3]: 256 µg/mL

N=C(N)NCCC[C@@H]1NC(=O)[C@H](CCCNC(=N)N)NC(=O)[C@H](CCCNC(=N)N)NC(=O)[C@H](Cc2c[nH]c3ccccc23)NC(=O)[C@H](Cc2c[nH]c3ccccc23)NC(=O)[C@H](Cc2c[nH]c3ccccc23)NC(=O)[C@H](Cc2c[nH]c3ccccc23)NC(=O)[C@H](CCCNC(=N)N)NC1=O [compound 1, [R4W4]] (cyclo(RRRRWWWW))
MBC P. aeruginosa (ATCC 27883) [13]: 128 µg/mL (≈ 93.5 µM) | MBC E. coli (ATCC 25922) [14]: 32 µg/mL (≈ 23.4 µM) | HC50 [16]: 175 µg/mL | MBC K. pneumoniae (ATCC BAA-1705) [19]: 64 µg/mL (≈ 46.7 µM)

N=C(N)NCCC[C@@H]1NC(=O)[C@H](CCCNC(=N)N)NC(=O)[C@H](CCCNC(=N)N)NC(=O)[C@H](Cc2c[nH]c3ccccc23)NC(=O)[C@H](Cc2c[nH]c3ccccc23)NC(=O)[C@H](Cc2c[nH]c3ccccc23)NC(=O)[C@H](Cc2c[nH]c3ccccc23)NC(=O)[C@H](Cc2c[nH]c3ccccc23)NC(=O)[C@H](CCCNC(=N)N)NC(=O)[C@H](CCCNC(=N)N)NC1=O [5b, [R5W5]]
MBC P. aeruginosa (ATCC 27883) [13]: 32 µg/mL (≈ 18.7 µM) | MBC E. coli (ATCC 25922) [14]: 64 µg/mL (≈ 37.4 µM) | MIC K. pneumoniae [15]: 32 | HC50 [16]: 230 µg/mL | MIC MRSA [17]: 4 | MIC P. aeruginosa [18]: 32 | MBC K. pneumoniae (ATCC BAA-1705) [19]: 32 µg/mL (≈ 18.7 µM) | MIC E. coli [20]: 16

O=C(O)c1cn(C2CC2)c2cc(N3CCNCC3)c(F)cc2c1=O [ciprofloxacin]
MBC [9]: 16 µg/mL (≈ 48.3 µM) | MBC [10]: 32 µg/mL (≈ 96.6 µM) | MIC S. aureus (ATCC BAA-1556) [17, 30]: 16 µg/mL (≈ 48.3 µM) | MIC [7, 27]: 16 µg/mL | MBC [11]: 8 µg/mL (≈ 24.1 µM) | MBC [12]: 16 µg/mL (≈ 48.3 µM) | MIC E. coli (ATCC 25922) [20, 30]: 64 µg/mL (≈ 193 µM)

N=C(N)NCCC[C@@H]1NC(=O)[C@H](CCCNC(=N)N)NC(=O)[C@H](CCCNC(=N)N)NC(=O)[C@H](CCCNC(=N)N)NC(=O)[C@H](Cc2c[nH]c3ccccc23)NC(=O)[C@H](Cc2c[nH]c3ccccc23)NC(=O)[C@H](Cc2c[nH]c3ccccc23)NC(=O)[C@H](Cc2c[nH]c3ccccc23)NC(=O)[C@H](Cc2c[nH]c3ccccc23)NC(=O)[C@H](CCCNC(=N)N)NC(=O)[C@H](CCCNC(=N)N)NC1=O [6b, [R6W5]] (cyclo(RRRRRRWWWWW))
MBC P. aeruginosa (ATCC 27883) [13]: 32 µg/mL (≈ 17.1 µM) | MBC E. coli (ATCC 25922) [14]: 128 µg/mL (≈ 68.5 µM) | MIC K. pneumoniae [15]: 64 | HC50 [16]: 255 µg/mL | MIC MRSA [17]: 8 | MIC P. aeruginosa [18]: 16 | MBC K. pneumoniae (ATCC BAA-1705) [19]: 64 µg/mL (≈ 34.3 µM) | MIC E. coli [20]: 32
